Counter-ions that a name gives are not always drawn.
Tested on: HIV-1 NL4-3 strain
Assay: Evaluation of antiviral activity: acute infection system of MT-4 cell with HIV-1 NL4-3 strain
Format: cell-based
Conditions: Human immunodeficiency virus 1, NL43, MT4, 120 h, MT-4 cells infected with HIV-1 NL4-3 strain (MOI 0.05), cultured 5 days, Cell Titer-Glo; read-out: antiviral activity (EC50)

`COC[C@H]1C[C@]2(CN(C)C(=O)c3c(OC(C)=O)c(=O)c(C(=O)NCc4cccc(Cl)c4F)cn32)C1` [Example 37, 7′-(3-chloro-2-fluorobenzylcarbamoyl)-cis-3-(methoxymethyl)-2′-methyl-1′,8′-dioxo-1′,2′,3′,8′-tetrahydrospiro[cyclobutane-1,4′-pyrido[1,2-a]pyrazin]-9′-yl acetate] and `CCC(=O)Oc1c2n(cc(C(=O)NCc3cccc(Cl)c3F)c1=O)[C@]1(CN(C)C2=O)C[C@H](OC)C1` [Example S65, 7′-(3-chloro-2-fluorobenzylcarbamoyl)-cis-3-methoxy-2′-methyl-1′,8′-dioxo-1′,2′,3′,8′-tetrahydrospiro[cyclobutane-1,4′-pyrido[1,2-a]pyrazin]-9′-yl propionate] are within 1.5-fold of each other in EC50: 0.7 nM for the first, 1 nM for the second.

`COC[C@H]1C[C@]2(CN(C)C(=O)c3c(OC(=O)c4cccc(C(=O)O)c4)c(=O)c(C(=O)NCc4cccc(Cl)c4F)cn32)C1` [Example 40, Monosodium 3-{[7′-(3-chloro-2-fluorobenzylcarbamoyl)-cis-3-(methoxymethyl)-2‘-methyl-’,8′-dioxo-1′,2′,3′,8′-tetrahydrospiro[cyclobutane-1,4′-pyrido[1,2-a]pyrazin]-9′-yloxy]carbonyl}benzoate] and `COC[C@H]1C[C@]2(CN(C)C(=O)c3c(OC(=O)c4ccc(C)cc4)c(=O)c(C(=O)NCc4cccc(Cl)c4F)cn32)C1` [Example S72, 7′-(3-chloro-2-fluorobenzylcarbamoyl)-cis-3-(methoxymethyl)-2′-methyl-1′,8′-dioxo-1′,2′,3′,8′-tetrahydrospiro[cyclobutane-1,4′-pyrido[1,2-a]pyrazin]-9′-yl 4-methylbenzoate] are within 1.5-fold of each other in EC50: 1 nM for the first, 0.9 nM for the second.

Going from `CCN1C[C@]2(C[C@@H](CO)C2)n2cc(C(=O)NCc3cccc(Cl)c3F)c(=O)c(O)c2C1=O` [Example S44, N-(3-chloro-2-fluorobenzyl)-2′-ethyl-9′-hydroxy-trans-3-(hydroxymethyl)-1′,8′-dioxo-1′,2′,3′,8′-tetrahydrospiro[cyclobutane-1,4′-pyrido[1,2-a]pyrazine]-7′-carboxamide hydrochloride] to `CCN1C[C@]2(C[C@@H](COC)C2)n2cc(C(=O)NCc3cccc(Cl)c3F)c(=O)c(O)c2C1=O` [Example S45, N-(3-chloro-2-fluorobenzyl)-2′-ethyl-9′-hydroxy-trans-3-(methoxymethyl)-1′,8′-dioxo-1′,2′,3′,8′-tetrahydrospiro[cyclobutane-1,4′-pyrido[1,2-a]pyrazine]-7′-carboxamide hydrochloride], the EC50 falls from 11 nM to 3.9 nM (2.8-fold). The second is the more potent here.

Compared with `CCN1C(=O)c2c(O)c(=O)c(C(=O)NCc3ccc(F)cc3F)cn2C[C@@]12C[C@@H]2COC` [Example T40, (1S,2S)-N-(2,4-difluorobenzyl)-2′-ethyl-9′-hydroxy-2-(methoxymethyl)-1′,8′-dioxo-1′,2′,4′,8′-tetrahydrospiro[cylcopropane-1,3′-pyrido[1,2-a]pyrazine]-7′-carboxamide hydrochloride], `CCOC[C@H]1C[C@@]12Cn1cc(C(=O)NCc3cccc(Cl)c3F)c(=O)c(O)c1C(=O)N2CC` [Example T45, (1S,2S)-N-(3-chloro-2-fluorobenzyl)-2-(ethoxymethyl)-2′-ethyl-9′-hydroxy-1′,8′-dioxo-1′,2′,4′,8′-tetrahydrospiro[cyclopropane-1,3′-pyrido[1,2-a]pyrazine]-7′-carboxamide] is 2.3-fold higher in EC50: 1.9 nM for the first, 4.4 nM for the second.

First: CO[C@H]1C[C@]2(Cn3cc(C(=O)NCc4ccc(F)cc4F)c(=O)c(O)c3C(=O)N2C(C)C)C1 [Example S53, N-(2,4-difluorobenzyl)-9′-hydroxy-2′-isopropyl-cis-3-methoxy-1′,8′-dioxo-1′,2′,4′,8′-tetrahydrospiro[cyclobutane-1,3′-pyrido[1,2-a]pyrazine]-7′-carboxamide hydrochloride]
Second: CC(C)N1C[C@]2(C[C@@H](OS(C)(=O)=O)C2)n2cc(C(=O)NCc3ccc(F)cc3F)c(=O)c(O)c2C1=O [Example S34, 7′-(2,4-difluorobenzylcarbamoyl)-9′-hydroxy-2′-isopropyl-1′,8′-dioxo-1′,2′,3′,8′-tetrahydrospiro[cyclobutane-1,4′-pyrido[1,2-a]pyrazine]- trans-3-yl methanesulfonate hydrochloride]
The EC50 of the first is 1.8-fold higher: 10 nM for the first, 5.7 nM for the second. The second is the more potent here.

First: CC(C)O[C@H]1C[C@]2(CN(C(C)C)C(=O)c3c(O)c(=O)c(C(=O)NCc4ccc(F)cc4F)cn32)C1 [Example S33, N-(2,4-difluorobenzyl)-9′-hydroxy-cis-3-isopropoxy-2′-isopropyl-1′,8′-dioxo-1′,2′,3′,8′-tetrahydrospiro[cyclobutane-1,4′-pyrido[1,2-a]pyrazine]-7′-carboxamide hydrochloride]
Second: CC(C)O[C@H]1C[C@]2(CN(C)C(=O)c3c(O)c(=O)c(C(=O)NCc4cccc(Cl)c4F)cn32)C1 [Example S41, N-(3-chloro-2-fluorobenzyl)-9′-hydroxy-cis-3-isopropoxy-2′-methyl-1′,8′-dioxo-1′,2′,3′,8′-tetrahydrospiro[cyclobutane-1,4′-pyrido[1,2-a]pyrazine]-7′-carboxamide hydrochloride]
The EC50 of the first is 1.8-fold higher: 6.4 nM for the first, 3.5 nM for the second.

`CCN1C[C@@]2(C[C@@H]2C(=O)O)n2cc(C(=O)NCc3ccc(F)cc3F)c(=O)c(O)c2C1=O` [Example T7, (1S,2S)-7′-(2,4-difluorobenzylcarbamoyl)-2′-ethyl-9′-hydroxy-1′,8′-dioxo-1′,2′,3′,8′-tetrahydrospiro[cyclopropane-1,4′-pyrido[1,2-a]pyrazine]-2-carboxylic acid hydrochloride] was tested, and the EC50 was 15 nM.

Same assay, conditions: Human immunodeficiency virus 1, NL43, MT4, 120 h, antiviral activity; MT-4 cells infected with HIV-1 NL4-3 (MOI 0.05), 5 days culture, Cell Titer-Glo luminescence; read-out: EC50

Compared with `CN1C[C@]2(C[C@@H](O)C2)n2cc(C(=O)NCc3ccc(F)cc3F)c(=O)c(O)c2C1=O` [Example S11, N-(2,4-difluorobenzyl)- trans-3,9′-dihydroxy-2′-methyl-1′,8′-dioxo-1′,2′,3′,8′-tetrahydrospiro[cyclobutane-1,4′-pyrido[1,2-a]pyrazine]-7′-carboxamide hydrobromide], `COCCO[C@H]1C[C@@]2(CN(C(C)C)C(=O)c3c(O)c(=O)c(C(=O)NCc4ccc(F)cc4F)cn32)C1` [Example S8, N-(2,4-difluorobenzyl)-9′-hydroxy-2′-isopropyl-trans-3-(2-methoxyethoxy)-1′,8′-dioxo-1′,2′-3′,8′-tetrahydrospiro[cyclobutane-1,4′-pyrido[1,2-a]pyrazine]-7′-carboxamide hydrochloride] is 4.7-fold lower in EC50: 25 nM for the first, 5.3 nM for the second.

Same assay, conditions: Human immunodeficiency virus 1, NL43, MT4, 120 h, read-out: antiviral activity (EC50), MT-4 cells infected with HIV-1 NL4-3 strain (MOI 0.05), cultured 5 days, Cell Titer-Glo

Compared with `CC(C)N1C[C@]2(C[C@H]2CO)n2cc(C(=O)NCc3cccc(Cl)c3F)c(=O)c(O)c2C1=O` [Example T5, (1R,2R)-N-(3-chloro-2-fluorobenzyl)-9′-hydroxy-2-(hydroxymethyl)-2′-isopropyl-1′,8′-dioxo-1′,2′,3′,8′-tetrahydrospiro[cyclopropane-1,4′-pyrido[1,2-a]pyrazine]-7′-carboxamide hydrochloride], `CN1C[C@]2(C[C@H]2CO)n2cc(C(=O)NCc3cccc(Cl)c3F)c(=O)c(O)c2C1=O` [Example T23, (1R,2R)-N-(3-chloro-2-fluorobenzyl)-9′-hydroxy-2-(hydroxymethyl)-2′-methyl-1′,8′-dioxo-1′,2′,3′,8′-tetrahydrospiro[cyclopropane-1,4′-pyrido[1,2-a]pyrazine]-7′-carboxamide hydrochloride] is 2.4-fold higher in EC50: 4 nM for the first, 9.6 nM for the second.

Compared with `CCN1C[C@]2(C[C@H]2CO)n2cc(C(=O)NCc3cccc(Cl)c3F)c(=O)c(O)c2C1=O` [Example T17, (1R,2R)-N-(3-chloro-2-fluorobenzyl)-2′-ethyl-9′-hydroxy-2-(hydroxymethyl)-1′,8′-dioxo-1′,2′,3′,8′-tetrahydrospiro[cyclopropane-1,4′-pyrido[1,2-a]pyrazine]-7′-carboxamide hydrochloride], `CCN1C[C@@]2(C[C@@H]2CO)n2cc(C(=O)NCc3cccc(Cl)c3F)c(=O)c(O)c2C1=O` [Example T18, (1S,2S)-N-(3-chloro-2-fluorobenzyl)-2′-ethyl-9′-hydroxy-2-(hydroxymethyl)-1′,8′-dioxo-1′,2′,3′,8′-tetrahydrospiro[cyclopropane-1,4′-pyrido[1,2-a]pyrazine]-7′-carboxamide hydrochloride] is 1.8-fold higher in EC50: 5.7 nM for the first, 10 nM for the second.

Going from `COC[C@@H]1C[C@]12CN(C)C(=O)c1c(O)c(=O)c(C(=O)NCc3ccc(OC)c(Cl)c3F)cn12` [Example T36, (1R,2R)-N-(3-chloro-2-fluoro-4-methoxybenzyl)-9′-hydroxy-2-(methoxymethyl)-2′-methyl-1′,8′-dioxo-1′,2′,3′,8′-tetrahydrospiro[cyclopropane-1,4′-pyrido[1,2-a]pyrazine]-7′-carboxamide hydrochloride] to `COC[C@H]1C[C@@]12CN(C)C(=O)c1c(O)c(=O)c(C(=O)NCc3ccc(OC)c(Cl)c3F)cn12` [Example T22, (1S,2S)-N-(3-chloro-2-fluoro-4-methoxybenzyl)-9′-hydroxy-2-(methoxymethyl)-2′-methyl-1′,8′-dioxo-1′,2′,3′,8′-tetrahydrospiro[cyclopropane-1,4′-pyrido[1,2-a]pyrazine]-7′-carboxamide hydrochloride], the EC50 falls from 10 nM to 4.9 nM (2-fold). The second is the more potent here.

Same assay, conditions: MT-4 cells infected with HIV-1 NL4-3 strain (MOI 0.05), cultured 5 days, Cell Titer-Glo; read-out: antiviral activity (EC50)

First: N-(3-chloro-2-fluorobenzyl)- 9′-hydroxy-cis-3-methoxy-2′- methyl-1′,8′-dioxo- 1′,2′,4′,8′- tetrahydrospiro[cyclobutane- 1,3′-pyrido[1,2-a]pyrazine]- 7′-carboxamide hydrochloride [Example S63]
Second: CO[C@H]1C[C@]2(CN(C)C(=O)c3c(O)c(=O)c(C(=O)NCc4cccc(Cl)c4F)cn32)C1 [Example 24, Monosodium 7′-(3-chloro-2-fluorobenzylcarbamoyl)-cis-3-methoxy-2′-methyl-1′,8′-dioxo-1′,2′,3′,8′-tetrahydrospiro[cyclobutane-1,4′-pyrido[1,2-a]pyrazin]-9′-olate]
The EC50 of the first is 4.4-fold higher: 4 nM for the first, 0.9 nM for the second.

Source: patent publication US10087178B2, “Substituted spiropyrido[1,2-a]pyrazine derivative and medicinal use thereof as HIV integrase inhibitor” (priority 2012, dated 2018)
